According to patent US20040244713A1, “Method for treating animals or masses of water with compositions comprising quinone compounds” (priority 2003, published 2004):
Like-named read-outs stand apart in the source and are kept apart here.

What was measured:
[1] = Photodegradability in sunlight and UV light; type: physicochemical; settings: 10-ppm solution in drinking water (pH 6.5-7.5)
Procedure: In a fully similar manner, the same behaviour is confirmed if one assesses the photodegradability in sunlight and UV light (the radiation test was performed on a 10-ppm solution in drinking water (pH 6.5-7.5)

[2] = Hydrolysis test performed in darkness; type: physicochemical
[3] = OECD301 A guidelines, cited from earlier work
[4] = Feeding trial in rabbits in the fattening stage (growth, mortality); type: in vivo, New Zealand White rabbits; settings: in feed: Bacitracin zinc 1.5 ppm, MSB 250 ppm; for Final number of animals / Final average weight / Mortality %: end of fattening cycle (53 days after weaning); for Final number of animals: 200 animals initially; for Average daily growth: fattening cycle of 53 days after weaning
Procedure: The effect of a preparation comprising menadione sodium bisulfite coated with saturated vegetable fatty acids on rabbits in the fattening stage is evaluated.
Composition of the preparation (per Kg of final preparation):
MSB coated with hydrogenated vegetable fatty acids (1:1 inclusion ratio) 250 g;
This preparation is added in the quantity of 1 Kg per ton of feed, so that the final concentration of MSB is equal to 125 ppm/Kg of finished food. Since rabbits are fed with 120-150 grams of feed/day, the concentration of MSB is equal to an average daily dose of approximately 15-20 mg of MSB/animal per day.
New Zealand White animals, weaned at 32 days, were grown with the preparation cited above and compared with animals of the same race, fed with the same basic feed but treated with bacitracin zinc in a quantity equal to 150 mg/100 Kg of feed and with animals lacking any drug integration.

[5] = Biodegradability OECD 301 A (92/69/EEC C4-A); type: physicochemical
From the text: The degradability of a substance is normally a factor that is impossible to predict on a structural basis. […] On the basis of the available data related to the compounds that are chemically more similar to the derivatives of menadione described here, one could have expected a degradability comprised between the 0% (percentage calculated on the initial mass of product expressed as mg/l) of menadione (2-methyl-1,4-naphthalenedione) and the 17% (assessed after 28 days) of menadione sodium bisulfite (where the calculation was performed by using the OECD301 A guidelines annexed to EEC directive 92/69/EEC C4-A).
Finally, biodegradability according to the 92/69/EEC C4-A regulation was also assessed.

Artemia Salina = assay: Toxicity test LC50 on Artemia Salina; settings: in vivo
From the text: (§9) The table below lists the results of the toxicity tests performed on fish fauna and on some phyto- and zooplankton species considered among the possible targets of the claimed method.

Eurytemora Affinis [6] = settings: in vivo
From the text: as §9

[7] = tested on: Dreissena Polimorfa Larvae; assay: Toxicity test LC50 on Dreissena Polimorfa larvae; settings: for LC50 Dreissena Polimorfa Larvae: in vivo
From the text: as §9

Isochris Galbana = assay: Toxicity test LC50 on Isochris Galbana; type: cell-based
From the text: as §9

[8] = tested on: Haemoncus contortus larvae (L3); assay: Faecal count of Haemoncus contortus larvae (L3); type: in vivo
Procedure: (§1) The effect of menadione nicotinamide bisulfite on Haemoncus contortus is assessed by measuring the motility of the larvae (L1), Table 2, and the faecal count of the larvae (L3), Table 2.1, according to the methodology described in Fetterer R. et Al. (1989) Vet. Parasitol. 32:181-189.

[9] = Procedure: As noted repeatedly, the water solubility of the biocidal candidate is an essential requirement for advantageous use in biological water control. Accordingly, this property was evaluated for four of the compounds that are representative of the chemical classes to which the biocides currently in use belong.
Rainbow trout = assay: Toxicity test LC50 on fish fauna, Rainbow trout; type: in vivo
From the text: as §9

[10] = tested on: Haemoncus contortus larvae (L1); assay: Motility of Haemoncus contortus larvae (L1); type: in vivo
Procedure: as §1

[11] = tested on: Staphylococcus aureus ATCC 25923; assay: Agar diffusion test (Kirby-Bauer); type: cell-based; settings: MNB (100 μg) per disk, 24 hours in darkness
Procedure: (§2) a) Kirby-Bauer test performed after 24 hours in darkness.
(§3) In this test, paper disks impregnated with known quantities of MNB are placed on the surface of agar disks injected at confluence with a standard suspension of a bacterial strain. The antibacterial agent diffuses on the plate, causing the formation of an area of inhibition of the growth of the bacterial strain around the disk with the inhibiting quantity of the agent. By virtue of a calibration curve it was possible to classify the isolates into susceptible, moderately resistant, and resistant.
(§4) The method being considered, therefore, assesses the effectiveness of a single quantity of agent ([…]) against two control strains of Gram-positive and Gram-negative aerobic bacteria (Gram-negative: Pseudomonas elongata NCIMB 1141; Gram-positive: Staphylococcus aureus ATCC 25923).
(§5) The results are given in the table and represent the size of the inhibition halos in millimetres after contact with 100 μg of MNB.

[12] = tested on: Pseudomonas elongata NCIMB 1141; assay: Agar diffusion test (Kirby-Bauer); type: cell-based; settings: MNB (100 μg) per disk, 24 hours in darkness
Procedure: as §2, §3, §4, §5

Vibrio sp. AE7 = settings: 24 hours in darkness, tested range 0.12-64 mg/l
Procedure: (§6) The MNB compound was tested in particular for its antibacterial activity on pathogenic and non-pathogenic organisms. The biocidal activity of MNB was estimated by using two separate methods: the agar diffusion test (Kirby-Bauer method) and the determination of the Minimum Inhibiting Concentration (MIC) and the Minimum Bactericidal Concentration (MBC).
(§7) b) Test for determining the MIC (minimum inhibiting concentration) and the MBC (minimum bactericidal concentration) of MNB with respect to pathogenic organisms after the colonies were kept in darkness for 24 hours. Tested concentration range: 0.12-64 mg/l. The tested strains were environmental isolates identified by means of an internal number or were standard strains identified by means of the ATCC or MNCIB filing number.

Vibrio sp. CH45 = settings: 24 hours in darkness, tested range 0.12-64 mg/l
Procedure: as §6, §7

Vibrio sp. AD18 = settings: 24 hours in darkness, tested range 0.12-64 mg/l
Procedure: as §6, §7

[13] = tested on: Vibrio parahaemolyticus AD19; assay: MIC and MBC determination; type: cell-based; settings: 24 hours in darkness, tested range 0.12-64 mg/l
Procedure: (§8) Tested concentration range: 0.12-64 mg/l.

Micrococcus sp. AD10 = assay: MIC and MBC determination; type: cell-based; settings: 24 hours in darkness, tested range 0.12-64 mg/l
Procedure: as §8

Bacillus subtilis = assay: MIC and MBC determination; type: cell-based; settings: Bacillus subtilis ATCC 25923; 24 hours in darkness; tested range 0.12-64 mg/l
Procedure: as §8

[14] = tested on: Escherichia coli ATCC 25922; assay: MIC and MBC determination; type: cell-based; settings: 24 hours in darkness, tested range 0.12-64 mg/l
Procedure: as §8

[15] = tested on: Staphylococcus aureus ATCC 25923; assay: MIC and MBC determination; type: cell-based; settings: 24 hours in darkness, tested range 0.12-64 mg/l
Procedure: as §8

[16] = tested on: Pseudomonas aeruginosa ATCC 10145; assay: MIC and MBC determination; type: cell-based; settings: 24 hours in darkness, tested range 0.12-64 mg/l
Procedure: as §8

Corynebacterium sp. CT15 = assay: MIC and MBC determination; type: cell-based; settings: 24 hours in darkness, tested range 0.12-64 mg/l
Procedure: as §8

[17] = tested on: Pseudomonas putida NCIMB 1960; assay: MIC and MBC determination; type: cell-based; settings: 24 hours in darkness, tested range 0.12-64 mg/l
Procedure: as §8

Aeromonas sp. CH34 = assay: MIC and MBC determination; type: cell-based; settings: 24 hours in darkness, tested range 0.12-64 mg/l
Procedure: as §8

[18] = tested on: Pseudomonas elongata NCIMB 1141; assay: MIC and MBC determination; type: cell-based; settings: 24 hours in darkness, tested range 0.12-64 mg/l
Procedure: as §8

[19] = tested on: Bacillus licheniformis NCIMB 1525; assay: MIC and MBC determination; type: cell-based; settings: 24 hours in darkness, tested range 0.12-64 mg/l
Procedure: as §8

Micrococcus sp. AE11 = assay: MIC and MBC determination; type: cell-based; settings: 24 hours in darkness, tested range 0.12-64 mg/l
Procedure: as §8

Eurytemora Affinis [20] = assay: Toxicity test LC50 on Eurytemora Affinis; settings: in vivo
From the text: as §9

With `O=C1C=CC(=O)c2c(O)cccc21` [Juglone, 5-hydroxy-1,4-naphthalenedione, reference compound] the “Light exp. Total Degr.” value [1] was 48 h and the “½ LIFE, hydrolysis” value ([2]; PH 9, in darkness) was 15 h.
In the case of `CC1(S(=O)(=O)[O-])CC(=O)c2ccccc2C1=O.[Na+]` (stereo not drawn) [MSB, menadione sodium bisulfite], the “degradability (percentage calculated on the initial mass of product expressed as mg/l)” value ([3]; assessed after 28 days, available/reported data) is listed as 17%, the “Final number of animals” value [4] is listed as 191 and the Final average weight [4] is listed as 2.84 kilograms. For the same compound, the Mortality % [4] was 4.5%, the Average daily growth [4] was 38.1 grams and the “% biodegr. OECD 301 A” value ([5]; after 7 days) was 5%. The “% biodegr. OECD 301 A” value ([5]; after 14 days) was 10%.
For `Cc1ccc2c(c1)C(=O)c1ccccc1C2=O` [2-methyl-anthraquinone], the “LC50 Artemia Salina” value (Artemia Salina) was 5 ppm, the “LC50 Eurytemora Affinis” value (Eurytemora Affinis [6]) was 5 ppm and the “LC50 Dreissena Polimorfa Larvae” value [7] was 200 ppm. The “LC50 Isochris Galbana” value (Isochris Galbana) was 0.5 ppm.
With `CC1(S(=O)(=O)O)CC(=O)c2ccccc2C1=O.NC(=O)c1cccnc1` (stereo not drawn) [MNB, menadione nicotinamide bisulfite] the “Total no. of larvae (L3)” value ([8]; 1 μg of MNB/ml) was 650, the “Total no. of larvae (L3)” value ([8]; 10 μg of MNB/ml) was 310 and the “Total no. of larvae (L3)” value ([8]; 100 μg of MNB/ml) was 35. The “Sol. in H2O” value [9] was 19 gr/l, the “LC50 Rainbow trout (assessed on 96 h)” value (Rainbow trout) was 0.4 ppm and the “LC50 Artemia Salina” value (Artemia Salina) was 5 ppm. For the same compound, the “Light exp. Total Degr.” value [1] was 48 h, the “Light exp. ½ life” value [1] was 10 h and the “% of motile larvae (L1)” value ([10]; 1 μg of MNB/ml) was 70%. The “% of motile larvae (L1)” value ([10]; 10 μg of MNB/ml) was 43%, the “% of motile larvae (L1)” value ([10]; 100 μg of MNB/ml) was 3% and the “size of the inhibition halos” value [11] was 20 mm. For the same compound, the “size of the inhibition halos” value [12] was 20 mm, the “½ LIFE, hydrolysis” value ([2]; PH 6.8, in darkness) was 48 h and the “½ LIFE, hydrolysis” value ([2]; PH 9, in darkness) was under 3 h. It also gave an MBC (Vibrio sp. AE7) of 32 to 64 µg/mL, an MIC (Vibrio sp. AE7) of 16 to 32 µg/mL and an MBC (Vibrio sp. CH45) of 16 µg/mL. The MIC (Vibrio sp. CH45) was 16 µg/mL, the MBC (Vibrio sp. AD18) was 32 µg/mL and the MIC (Vibrio sp. AD18) was 16 µg/mL. For the same compound, the MBC [13] was 4 µg/mL, the MIC [13] was 1 µg/mL and the MBC (Micrococcus sp. AD10) was 32 µg/mL. For the same compound, the MIC (Micrococcus sp. AD10) was 16 µg/mL, the MBC (Bacillus subtilis) was 32 µg/mL and the MIC (Bacillus subtilis) was 12 µg/mL. It also gave an MBC [14] of over 64 µg/mL, an MIC [14] of over 64 µg/mL and an MBC [15] of 16 µg/mL. The MIC [15] was 8 µg/mL, the MBC [16] was over 64 µg/mL and the MIC [16] was over 64 µg/mL. For the same compound, the MBC (Corynebacterium sp. CT15) was 16 µg/mL, the MIC (Corynebacterium sp. CT15) was 8 µg/mL and the MBC [17] was over 64 µg/mL. The MIC [17] was over 64 µg/mL, the MBC (Aeromonas sp. CH34) was 64 µg/mL and the MIC (Aeromonas sp. CH34) was 32 µg/mL. For the same compound, the MBC [18] was 16 µg/mL, the MIC [18] was 8 µg/mL and the MBC [19] was 32 µg/mL. It also gave an MIC [19] of 16 µg/mL, an MBC (Micrococcus sp. AE11) of 16 µg/mL and an MIC (Micrococcus sp. AE11) of 8 µg/mL. For the same compound, the “LC50 Dreissena Polimorfa Larvae” value [7] was 1 ppm, the “degradability compared with that of MSB” value [5] was “as much as eight times higher” and the “% biodegr. OECD 301 A” value ([5]; after 7 days) was 37%. For the same compound, the “% biodegr. OECD 301 A” value ([5]; after 14 days) was 37%, the “% biodegr. OECD 301 A” value ([5]; after 28 days) was 40% and the “LC50 Isochris Galbana” value (Isochris Galbana) was 0.5 ppm. For the same compound, the “LC50 Eurytemora Affinis” value (Eurytemora Affinis [20]) was 5 ppm.
For `CC1=CC(=O)c2c(O)cccc2C1=O` [2-methyl-5-hydroxy-1,4-naphthalenedione], the “LC50 Artemia Salina” value (Artemia Salina) was 5 ppm, the “LC50 Dreissena Polimorfa Larvae” value [7] was 0.2 ppm and the “LC50 Isochris Galbana” value (Isochris Galbana) was 0.5 ppm. For the same compound, the “LC50 Eurytemora Affinis” value (Eurytemora Affinis [20]) was 5 ppm.
For `CC1=CC(=O)c2ccccc2C1=O` [Menadione, 2-methyl-1,4-naphthalenedione, reference compound], the “degradability (percentage calculated on the initial mass of product expressed as mg/l)” value ([3]; available data, time not stated) is listed as 0%, the “LC50 Rainbow trout (assessed on 96 h)” value (Rainbow trout) is listed as 0.1 ppm and the “LC50 Artemia Salina” value (Artemia Salina) is listed as 5 ppm. For the same compound, the “LC50 Eurytemora Affinis” value (Eurytemora Affinis [6]) was 5 ppm, the “Light exp. Total Degr.” value [1] was over 5000 h and the “Light exp. ½ life” value [1] was 1500 h. The “½ LIFE, hydrolysis” value ([2]; PH 6.8, in darkness) was 1500 h, the “½ LIFE, hydrolysis” value ([2]; PH 9, in darkness) was 550 h and the “LC50 on Dreissena Polimorfa relative to 2-methyl-5-hydroxy-1,4-naphthalenedione” value ([7]; 500 ppm vs 0.2 ppm) was 2500 times. For the same compound, the “LC50 Dreissena Polimorfa Larvae” value [7] was 500 ppm and the “LC50 Isochris Galbana” value (Isochris Galbana) was 0.05 ppm.
For bacitracin zinc [reference compound], the “Final number of animals” value [4] was 185, the Final average weight [4] was 2.77 kilograms and the Mortality % [4] was 7.5%. For the same compound, the Average daily growth [4] was 36.8 grams.
